Drawing on patent US20220380357A1, “TETRAHYDROISOQUINOLINE COMPOUNDS” (ALLINKY BIOPHARMA, priority 2019, published 2022), this text covers IC50 for 19 compounds.

What all share (type): cell-based
Test [1] has as its system A549. Lung carcinoma cell line bearing KRas^G12S oncogenic mutation. Put plainly: Antiproliferative MTS assay, A549 cells. The settings on record: Homo sapiens, A549, 72 h, compounds 1-23 and 47-52 median of experiments, 24-46 estimations and/or preliminary results, read-out: IC50 values: cell proliferation inhibition, A549. The procedure: Cell line #1: A549. Lung carcinoma cell line bearing KRas^G12S oncogenic mutation
(§1) Cell lines were cultured in DMEM or RPMI-1640 supplemented with FBS 10%. In order to assess the antiproliferative effect of compounds, cells were seeded at a density of 1.8×10^3, 6.2×10^3, 7.8×10^3, 21×10^3 and 2×10^3 cells/cm^2, respectively, in tissue culture microplates and were incubated in humidified atmosphere at 5% CO2. 24 h later, compounds dissolved in DMSO 100% were added for different final concentrations ranging between 0.1 and 50 μM for a final DMSO concentration of 0.5% and the plates were incubated for another 72 h. After incubation, proliferation was quantified using CellTiter 96® Aqueous Non-Radioactive Cell Proliferation Assay-MTS (Promega #G5421) following manufacturer instructions. Amount of 490 nm absorbance is directly proportional to the number of living cells. Absorbance was recorded with a BMG Fluostar Optima Microplate Reader and normalized to control with vehicle.

For test [2], the system named is RPMI. myeloma cell line bearing KRas^G12A oncogenic mutation. Nature of the test: Antiproliferative MTS assay, RPMI cells. Particulars: 72 h, compounds 1-23 and 47-52 median of experiments, 24-46 estimations and/or preliminary results, read-out: IC50 values: cell proliferation inhibition, RPMI. The procedure:
Cell line #4: RPMI. myeloma cell line bearing KRas^G12A oncogenic mutation
as §1

Test [3] deals with NIH-H358 Cell Line. Nature of the test: 3D CellTiter-Glo cell viability assay. The settings on record: 168 h, NIH-H358 cells in 0.65% methylcellulose, 7 days' compound treatment. The procedure:
Example 5: Efficacy Testing in 3D Viability Assay for NIH-H358 Cell Line
The protocol to perform 3D CellTiter-Glo™ cell viability assay is as follows:
Day—1: Cell plating • Adjust cell concentrations to 1×10^5 cells/ml with respective medium. (Cell concentration is adjusted according to data base or density optimization assay). Mix 3.5 mL of cell suspension 6.5 mL of 1% methylcellulose. Mix and wait for bubbles to disperse before pipetting. This step yields 10 ml of cell suspension in 0.65% methylcellulose solution. Add 99.5 μL cell suspensions to 96-well plates according to plate map with final cell density. • Two duplicate plates will be set up. One is for day 0 reading (T0) and the other will be cultured in incubator for reading at the end point. • Incubate the plates overnight in humidified incubator at 37° C. with 5% CO2.
Day 0: T0 plate reading and compound treatment • Take T0 plate, add 0.5 μL culture medium to each well for T0 reading. • Add 100 μl CellTiter-Glo® Reagent to each well. • Mix contents for 2 minutes on an orbital shaker to facilitate cell lysis. • Allow the plate to incubate at room temperature for 10 minutes to stabilize luminescent signal. • Record luminescence using EnVision Multi Label Reader. • Dilute the test articles at the concentration indicated at Test Articles Dilution. Add 0.5 μL of each 200× compound working solutions according to plate inoculation map.
Day 7: Plate reading of 7 days' compound treatment • Add 100 μL CellTiter-Glo® Reagent to each well. • Mix contents for 2 minutes on an orbital shaker to facilitate cell lysis. • Allow the plate to incubate at room temperature for 10 minutes to stabilize luminescent signal. • Record luminescence using EnVision Multi Label Reader.
In general terms: ATP-based viability assays read luminescence as a measure of living cells.

The subject of test [4] is PANC-1. epithelioid carcinoma of the pancreas cell line bearing KRas^G12D oncogenic mutation. Put plainly: Antiproliferative MTS assay, PANC-1 cells. The settings on record: Homo sapiens, PANC-1, 72 h, compounds 1-23 and 47-52 median of experiments, 24-46 estimations and/or preliminary results, read-out: IC50 values: cell proliferation inhibition, Panc-1. The procedure: Cell line #3: PANC-1. epithelioid carcinoma of the pancreas cell line bearing KRas^G12D oncogenic mutation
as §1

Test [5] relates to H358. non-small cell lung cancer line bearing KRas^G12C oncogenic mutation. Put plainly: Antiproliferative MTS assay, H358 cells. The settings on record: Homo sapiens, NCI-H358, 72 h, compounds 1-23, 47-52 and Reference Example 1 median of experiments, 24-46 estimations and/or preliminary results, read-out: IC50 values: cell proliferation inhibition, H358. The procedure: Cell line #2: H358. non-small cell lung cancer line bearing KRas^G12C oncogenic mutation
as §1

With `COc1cc(O)cc(CCOc2cc3c(cc2OC)CCN(C(=O)NCc2cocn2)C3c2ccc(C)cc2C)c1` (stereo not drawn) [Compound 1], the IC50 in test [1] is 2000 nM; in test [2], 1500 nM; in test [3], over 1000 nM; in test [4] it was 2000 nM; in test [5], 1500 nM.

Take `COc1ccc(CCOc2cc3c(cc2OC)CCN(C(=O)NCc2cocn2)C3c2ccc(C)cc2C)cc1O` (stereo not drawn) [Compound 2]: the IC50 in test [1] is 1000 nM; in test [2], 200 nM; in test [3], 299 nM; in test [4], 300 nM; in test [5], 400 nM.

Turning to `COc1cc2c(cc1OCCc1cc(O)cc(Cl)c1)C(c1ccc(C)cc1C)N(C(=O)NCc1cocn1)CC2` (stereo not drawn) [Compound 3], the IC50 in test [1] is over 2000 nM; in test [2], over 2000 nM; in test [3], over 1000 nM; in test [4] it was over 2000 nM; in test [5], over 2000 nM.

With `COc1ccc(CCOc2cc3c(cc2OC)CCN(C(=O)NCc2cocn2)C3c2ccc(C)cc2C)cc1N` (stereo not drawn) [Compound 4], the IC50 in test [1] is 900 nM; in test [2], 300 nM; in test [3], 556 nM; in test [4], 400 nM; in test [5], 200 nM.

Consider `CCNC(=O)N1CCc2cc(OC)c(OCCc3ccc(OC)c(O)c3)cc2C1c1ccc(C)cc1C` (stereo not drawn) [Compound 5, 1-(2,4-dimethylphenyl)-N-ethyl-7-(3-hydroxy-4-methoxyphenethoxy)-6-methoxy-3,4-dihydroisoquinoline-2(1H)-carboxamide], for which the IC50 in test [1] is 700 nM; in test [2], 100 nM; in test [3] it was 533 nM; in test [4] it was 200 nM; in test [5] it was 100 nM.

With `CCNC(=O)N1CCc2cc(OC)c(OCCc3ccc(F)c(N)c3)cc2C1c1ccc(C)cc1C` (stereo not drawn) [Compound 7], the IC50 in test [1] was 600 nM; in test [2], 600 nM; in test [3], 531 nM; in test [4], 800 nM; in test [5] it was 900 nM.

With `CCNC(=O)N1CCc2cc(OC)c(OCCc3ccc(OC)c([N+](=O)[O-])c3)cc2C1c1ccc(C)cc1C` (stereo not drawn) [Compound 8], the IC50 is 900 nM in test [1]; 200 nM in test [2]; over 3000 nM in test [3]; 200 nM in test [4]; 200 nM in test [5].

With `CCNC(=O)N1CCc2cc(OC)c(OCCc3ccc(N)c(OC)c3)cc2C1c1ccc(C)cc1C` (stereo not drawn) [Compound 9, 7-(4-amino-3-methoxyphenethoxy)-1-(2,4-dimethylphenyl)-N-ethyl-6-methoxy-3,4-dihydroisoquinoline-2(1H)-carboxamide], the IC50 in test [1] was 1000 nM; in test [2], 200 nM; in test [3], 645 nM; in test [4], 300 nM; in test [5], 400 nM.

In the case of `CCNC(=O)N1CCc2cc(OC)c(OCCc3ccc(OC)c(N)c3)cc2C1c1ccc(C(F)(F)F)cc1C` (stereo not drawn) [Compound 10], the IC50 in test [1] is 900 nM; in test [2], 100 nM; in test [3], 360 nM; in test [4] it was 200 nM; in test [5] it was 300 nM.

For the compound `COc1cc(CCOc2cc3c(cc2OC)CCN(C(=O)NCC(F)(F)F)C3c2ccc(C)cc2C)ccc1N` (stereo not drawn) [Compound 43], the IC50 was 1000 nM in test [1], 100 nM in test [2], 200 nM in test [4] and 300 nM in test [5].

In the case of `COc1cc(CCOc2cc3c(cc2OC)CCN(C(=O)NCC(F)(F)F)C3c2ccc(C(F)(F)F)cc2C)ccc1N` (stereo not drawn) [Compound 44], the IC50 in test [1] is over 2000 nM; in test [2], 300 nM; in test [4] it was 500 nM; in test [5] it was 800 nM.

As for `COc1ccc(C2c3cc(OCCc4ccc(N)c(OC)c4)c(OC)cc3CCN2C(=O)NCC(F)(F)F)c(C)c1` (stereo not drawn) [Compound 45], the IC50 in test [1] is 1000 nM; in test [2], 200 nM; in test [4], 300 nM; in test [5], 600 nM.

Take `COc1cc(CCOc2cc3c(cc2OC)CCN(C(=O)NCC(F)(F)F)C3c2ccc(F)cc2C)ccc1N` (stereo not drawn) [Compound 46]: the IC50 in test [1] is 1000 nM; in test [2], 100 nM; in test [4], 300 nM; in test [5], 500 nM.

For `COc1ccc(CCOc2cc3c(cc2OC)CCN(C(=O)N[C@H](C)C(F)(F)F)C3c2ccc(C)cc2C)cc1N` (stereo partly drawn) [Compound 47], the IC50 in test [1] is over 2000 nM; in test [2], 400 nM; in test [3], 963 nM; in test [4], over 1000 nM; in test [5], 600 nM.

In the case of `COc1ccc(CCOc2cc3c(cc2OC)CCN(C(=O)N[C@@H](C)C(F)(F)F)C3c2ccc(C)cc2C)cc1N` (stereo partly drawn) [Compound 48], the IC50 was over 1000 nM in test [1]; 40 nM in test [2]; 371 nM in test [3]; 500 nM in test [4]; 100 nM in test [5].

Consider `COc1cc2c(cc1OCCc1ccc(OC)c([N+](=O)[O-])c1)C(c1ccc(C)cc1C)N(C(=O)NCc1cocn1)CC2` (stereo not drawn) [Compound 49], for which the IC50 was over 2000 nM in test [1], over 1000 nM in test [2], 1500 nM in test [4] and over 800 nM in test [5].

As for `COc1ccc(C2c3cc(OCCc4ccc(OC)c(N)c4)c(OC)cc3CCN2C(=O)N[C@@H](C)C(F)(F)F)c(C)c1` (stereo partly drawn) [Compound 50], the IC50 is over 2000 nM in test [1]; 150 nM in test [2]; 767 nM in test [3]; 200 nM in test [4]; 500 nM in test [5].

For `CCNC(=O)N1CCc2cc(OC)c(OCCc3ccc(OC)c(N)c3)cc2C1c1ccc(Br)cc1C` (stereo not drawn) [Compound 51], the IC50 in test [1] was 200 nM; in test [2] it was over 1000 nM; in test [3], 178 nM; in test [4], 70 nM; in test [5] it was 150 nM.

Consider `CCNC(=O)N1CCc2cc(OC)c(OCCc3ccc(OC)c(N)c3)cc2C1c1ccc(N(C)C)cc1C` (stereo not drawn) [Compound 52], for which the IC50 in test [1] was over 2000 nM; in test [2], 200 nM; in test [3], over 1000 nM; in test [4] it was 1000 nM; in test [5], 1000 nM.
